Values of other authors as cited in patent US20110092560A1, “TOPICAL COMPOSITION FOR CONTROLLING ECTOPARASITES IN DOGS AND CATS” (CEVA SANTE ANIMALE SA, priority 2008, published 2011).

Tests used:
[1] = mouse, in vivo, po
[2] = in vivo

SMILES: N#Cc1nn(-c2c(Cl)cc(C(F)(F)F)cc2Cl)c(N)c1[S+]([O-])C(F)(F)F (centres unmarked) [fipronil, Fipronil]
- metabolites eliminated in the faeces [1]: 45-75%
- metabolites eliminated in the urine [1]: 5-25%
- plasma half-life [1]: 149 to 200 h
- tissues in which residues were found [1]: fat, the adrenal glands, pancreas, skin, liver, kidney, and muscle
- carcinogenic, teratogenic or mutagenic potential [2]: not carcinogenic, teratogenic or mutagenic
